{"source": "patent US20100234366A1", "about": "“Use of Strobilurins for the Treatment of Disorders of Iron Metabolism” (BSF SE, priority 2006, published 2010)", "key": {"HFE mice": {"system": "HFE mice", "assay": "Treatment of HFE mice (serum iron level, model of hemochromatosis)", "format": "in vivo, mouse", "details": "for reduction of serum iron concentration compared with control group: 2000 ppm in the food, 7 days", "experimental": "This genetic defect leads to HFE mice having an elevated iron level in the liver, and this can serve as model of hemochromatosis disorder in humans. The HFE mice employed in the experiments were 12 to 23 weeks old (obtained from University College London, Department of Biochemistry and Molecular Biology).\nThe housing conditions of the mice corresponded to typical standards as have also been described in Example 1. In the experiments, investigations were carried out both with male HFE mice and with female HFE mice. In each case one group of animals received over a period of 7 days 2000 ppm of the phenylacetic acid derivative orysastrobin each day. The product was supplied freely in the food. The comparison group received only the regular food."}, "male Wistar rats [1]": {"system": "male Wistar rats", "assay": "Treatment of rats with an elevated iron level (iron level in the blood)", "format": "in vivo, rat", "experimental": "Two grams of the phenylacetic acid derivative orysastrobin were prepared by known methods and purified by conventional methods.\nSix-week old male Wistar rats (Elévage Janvier, France) were employed for the experiments. These rats, which were housed under conventional conditions (20-24° C., 30-70% humidity, 12 hours illumination, standard food) were divided into five groups of equal size.\nThe first group was treated with no iron compound and no strobilurin derivative.\nThe second group was treated only with 200 mg of the phenylacetic acid derivative orysastrobin (as suspension by gavage).\nThe third group received a single intramuscular injection of 50 mg/kg of an iron(III) hydroxide-dextran complex (Myofer® 100), 1 ml of the injection solution comprising 320 mg of the complex (equivalent to 195 mg of Fe(OH)3).\nThe fourth group received both an injection of 50 mg/kg of the iron complex and, after 6 hours, a dose of 200 mg/kg of the strobilurin derivative by gavage.\nThe fifth group received both an injection of 50 mg/kg of the iron complex and, after 24 hours, a dose of 200 mg/kg of the strobilurin derivative by gavage.\n24 hours before the start of the test, a blood sample was taken from all the rats, in each case at 8 o'clock in the morning of the preceding day, and was analyzed. The iron complex and/or the strobilurin derivative was administered at 8 o'clock in the morning of the day of the experiment. Further blood samples were taken from all the rats at 2 o'clock in the afternoon of the day of the experiment and at 8 o'clock in the morning of the next day, and were analyzed."}, "male Wistar rats [2]": {"system": "male Wistar rats", "assay": "Treatment of rats with dimoxystrobin (iron concentration in the blood)", "format": "in vivo, rat", "details": "for average iron level in the blood: fourth group: 6-week old rats; for average iron level in the blood / blood level of iron: 500 ppm each day via the food; for blood level of iron: second group: 3-week old rats; for level of iron in the blood: sixth group: 3-week old rats, 250 ppm each day", "experimental": "10 g of the phenylacetic acid derivative dimoxystrobin were prepared by known methods and purified by conventional methods.\nBoth 3-week old and 6-week old male Wistar rats (see Example 1) were employed for the subsequent experiments. These rats were divided into 6 equally sized groups of 10 rats. The rats were housed under conventional conditions.\nThe first group consisted of 3-week old rats. They received only the regular food over the entire period of the experiment.\nThe second group likewise consisted of 3-week old rats. The animals received 500 ppm (milligrams of test substance per […]) of dimoxystrobin each day. It was supplied via the food.\nThe third group consisted of 6-week old rats which received no active ingredient via the food.\nThe fourth group consisted of 6-week old rats which received 500 ppm dimoxystrobin via the food each day.\nThe fifth group consisted of 3-week old rats which received no active ingredient.\nThe sixth group consisted of 3-week old rats which received 250 ppm of the test substance dimoxystrobin each day.\nThe iron concentrations in the blood were determined both after 2 days and after 7 days."}}}
{"smiles": "CNC(=O)/C(=N/OC)c1ccccc1CO/N=C(C)/C(=N/OC)C(/C)=N/OC", "note": "[orysastrobin, (2E)-2(methoximino)-2-[2-[(3E,5E,6E)-5-(methoximino)-4,6-dimethyl-2 , 8-dioxa-3,7-diazanona-3,6-dien-1-yl]phenyl]-N-methylacetamide]", "values": [{"measurement": "iron level (serum)", "setting": "HFE mice; female HFE mice, 2000 ppm each day in the food, after one week, control 51.2", "value": 36.66, "unit": "µmol/L"}, {"measurement": "reduction of serum iron concentration compared with control group", "setting": "HFE mice; female HFE mice", "value": "about 28%"}, {"measurement": "serum iron level", "setting": "HFE mice; male HFE mice, 2000 ppm each day in the food, after one week, control 40.06", "value": 30.62, "unit": "µmol/L"}, {"measurement": "reduction of serum iron concentration compared with control group", "setting": "HFE mice; male HFE mice", "value": "about 24%"}, {"measurement": "iron level in the blood", "setting": "male Wistar rats [1]; fifth group: 50 mg/kg iron complex i.m. plus 200 mg/kg orysastrobin by gavage, after 24 hours, iron only 147.8", "value": 91.9, "unit": "µmol/L"}, {"measurement": "iron level in the blood", "setting": "male Wistar rats [1]; fourth group: 50 mg/kg iron complex i.m. plus 200 mg/kg orysastrobin by gavage, after 6 hours, iron only 153.9", "value": 83.1, "unit": "µmol/L"}, {"measurement": "iron level in the blood", "setting": "male Wistar rats [1]; second group: only 200 mg orysastrobin by gavage, no iron, 6 hours after administration, untreated control 47.8", "value": 20.6, "unit": "µmol/L"}, {"measurement": "iron level in the blood", "setting": "male Wistar rats [1]; second group: only 200 mg orysastrobin by gavage, no iron, after 24 hours, untreated control 47.8", "value": 26.3, "unit": "µmol/L"}]}
{"smiles": "CNC(=O)/C(=N/OC)c1ccccc1COc1cc(C)ccc1C", "note": "[dimoxystrobin, (E)-2(methoximino)-N-methyl-2-[α-(2,5-xylyloxy)-o-tolyl]acetamide]", "values": [{"measurement": "average iron level in the blood", "setting": "male Wistar rats [2]; after 2 days, control 43.1", "value": 34.2, "unit": "µmol/L"}, {"measurement": "average iron level in the blood", "setting": "male Wistar rats [2]; after 7 days, control 44.0", "value": 36, "unit": "µmol/L"}, {"measurement": "finding at the duodenum", "setting": "male Wistar rats [2]; rats treated with dimoxystrobin, occurred only in the adult animals", "value": "distinct thickening of the duodenum"}, {"measurement": "blood level of iron", "setting": "male Wistar rats [2]; after 2 days, control 92.6", "value": 35.8, "unit": "µmol/L"}, {"measurement": "blood level of iron", "setting": "male Wistar rats [2]; after 7 days", "value": 33.6, "unit": "µmol/L"}, {"measurement": "level of iron in the blood", "setting": "male Wistar rats [2]; after 2 days, control 96.7", "value": 56, "unit": "µmol/L"}, {"measurement": "level of iron in the blood", "setting": "male Wistar rats [2]; after 7 days, control 96.1", "value": 59.7, "unit": "µmol/L"}]}
